Laboratory results reported in patent publication US6727250B2, “Carboxylic acid amides, pharmaceutical compositions containing these compounds, their use and preparation” (Boehringer Ingelheim Pharma KG, priority 1999, dated 2004).

The molecules below were run against T1, telomerase in nuclear extracts from HeLa cells (Homo sapiens, UniProt O14746) (assay: Telomerase test: activity of telomerase in nuclear extracts from HeLa cells (method of Morin)). Conditions: concentration of inhibitor which inhibits the telomerase activity by 50%; HeLa nuclear extract, 120 minutes at 30° C., Phospho-Imager quantification.
T1 construct: The activity of telomerase in nuclear extracts from HeLa cells; endogenous in cells; host or cells: HeLa-S3 nuclear extract (ATCC CCL-2.2), prepared according to Dignam
Assay type: biochemical
Experimental: The inhibiting effect of the carboxylic acid amides of general formula I on telomerase was investigated as follows: […]
1. Preparation of Nuclear Extracts from HeLa Cells:
Nuclear extracts were prepared according to Dignam (Dignam et al. in Nucleic Acids Res. 11, 1475-1489 (1983)). All the steps were carried out at 4° C., all the equipment and solutions were pre-cooled to 4° C. At least 1×10^9 HeLa-S3 cells growing in suspension culture (ATCC catalogue number CCL-2.2) were harvested by centrifuging for 5 minutes at 1000× g and washed once with PBS buffer ([…]; 2.7 mM KCl; 8.1 mM Na2HPO4; 1.5 mM KH2PO4). After the cell volume had been determined, the cells were suspended in 5 times the volume of hypotonic buffer (10 mM HEPES/KOH, pH 7.8; 10 mM KCl; 1.5 mM MgCl2) and then left for 10 minutes at 4° C. After centrifuging for 5 minutes at 1000× g the cell pellet was suspended in twice the volume of hypotonic buffer in the presence of 1 mM DTE and 1 mM PMSF and broken up with a Dounce homogeniser. The homogenised material was made isotonic with 0.1 volume of 10-fold saline buffer (300 mM HEPES/KOH, pH 7.8; 1.4 M KCl; 30 mM MgCl2). The cell nuclei were separated from the ingredients of the cytoplasm by centrifuging and then suspended in twice the volume of nuclear extraction buffer (20 mM HEPES/KOH, pH 7.9; 420 mM KCl; 1.5 mM MgCl2; 0.2 mM EDTA; 0.5 mM DTE; 25% glycerol). The nuclei were broken up using a Dounce homogeniser and incubated for 30 minutes at 4° C. with gentle stirring. Any insoluble ingredients were removed by centrifuging for 30 minutes at 10.000 rpm (SS-34 Rotor). Then the nuclear extract was dialysed for 4-5 hours against AM-100 buffer (20 mM tris/HCl, pH 7.9; 100 mM KCl; 0.1 mM EDTA; 0.5 mM DTE; 20% glycerol). The nuclear extracts obtained were frozen in liquid nitrogen and stored at −80° C.
The activity of telomerase in nuclear extracts from HeLa cells was determined using the method described by Morin (Morin in Cell 59, 521-529 (1989)). […] If the inhibition constant of potential telomerase inhibitors was to be determined, these were also added to the telomerase reaction in a concentration range of from 1 nM to 100 μM.
The reaction was then stopped by the addition of 50 μl of RNase stop buffer (10 mM tris/HCL, pH 8.0; 20 mM EDTA; 0.1 mg/ml of RNase A 100 U/ml of RNase T1; 1000 cpm of an α-^32P-dGTP labelled, 430 bp DNA fragment) and incubation was continued for a further 15 minutes at 37° C. Proteins present in the reaction mixture were cleaved by the addition of 50 μl of proteinase K buffer (10 mM tris/HCL, pH 8.0; 0.5% SDS; 0.3 mg/ml of proteinase K) and subsequent incubation for 15 min at 37° C. The DNA was purified by extracting twice with phenol-chloroform and precipitated by adding 2.4 M ammonium acetate; 3 μg tRNA and 750 μl ethanol. Then the precipitated DNA was washed with 500 μl of 70% ethanol, dried at ambient temperature, taken up in 4 μl of formamide probe buffer (80% (V/V) formamide; 50 mM of tris-borate, pH 8.3; 1 mM EDTA; 0.1 (w/v) of xylene cyanol; 0.1% (w/v) bromophenol blue) and separated by electrophoresis on a sequence gel (8% polyacrylamide, 7 M urea, 1× TBE buffer). The DNA synthesised by telomerase in the presence or absence of potential inhibitors was identified and quantified by Phospho-Imager Analysis (Molecular Dynamics) and in this way the concentration of inhibitor which inhibits the telomerase activity by 50% (IC50) was determined.

T1 sequence (O14746 whole entry): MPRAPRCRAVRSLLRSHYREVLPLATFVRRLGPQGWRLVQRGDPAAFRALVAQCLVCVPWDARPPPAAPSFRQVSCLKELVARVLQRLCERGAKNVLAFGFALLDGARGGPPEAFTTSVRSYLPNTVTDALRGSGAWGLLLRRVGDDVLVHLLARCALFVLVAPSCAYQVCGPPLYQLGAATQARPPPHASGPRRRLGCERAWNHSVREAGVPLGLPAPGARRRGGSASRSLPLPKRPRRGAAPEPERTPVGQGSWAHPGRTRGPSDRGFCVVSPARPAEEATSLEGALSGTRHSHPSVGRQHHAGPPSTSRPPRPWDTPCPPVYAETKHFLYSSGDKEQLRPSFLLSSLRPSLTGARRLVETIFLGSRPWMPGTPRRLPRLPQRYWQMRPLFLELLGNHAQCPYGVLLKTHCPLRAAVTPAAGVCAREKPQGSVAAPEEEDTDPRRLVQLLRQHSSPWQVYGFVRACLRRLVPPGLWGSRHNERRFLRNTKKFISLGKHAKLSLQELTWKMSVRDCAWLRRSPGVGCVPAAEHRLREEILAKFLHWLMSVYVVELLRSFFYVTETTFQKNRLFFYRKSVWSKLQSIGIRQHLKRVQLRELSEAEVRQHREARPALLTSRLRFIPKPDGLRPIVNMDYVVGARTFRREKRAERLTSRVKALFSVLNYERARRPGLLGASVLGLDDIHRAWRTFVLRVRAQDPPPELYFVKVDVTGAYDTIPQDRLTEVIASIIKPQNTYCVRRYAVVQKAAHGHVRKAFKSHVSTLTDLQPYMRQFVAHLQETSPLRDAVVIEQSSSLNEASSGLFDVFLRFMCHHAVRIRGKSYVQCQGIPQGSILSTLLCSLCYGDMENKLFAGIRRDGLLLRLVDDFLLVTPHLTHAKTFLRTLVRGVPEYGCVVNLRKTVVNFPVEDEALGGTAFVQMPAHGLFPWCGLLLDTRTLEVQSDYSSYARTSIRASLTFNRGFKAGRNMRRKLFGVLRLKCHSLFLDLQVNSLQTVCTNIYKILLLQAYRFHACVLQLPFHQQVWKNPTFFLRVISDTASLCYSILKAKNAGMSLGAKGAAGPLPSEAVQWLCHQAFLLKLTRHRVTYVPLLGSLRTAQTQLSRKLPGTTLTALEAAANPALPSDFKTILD
T1 sequence (O60832 whole entry partner): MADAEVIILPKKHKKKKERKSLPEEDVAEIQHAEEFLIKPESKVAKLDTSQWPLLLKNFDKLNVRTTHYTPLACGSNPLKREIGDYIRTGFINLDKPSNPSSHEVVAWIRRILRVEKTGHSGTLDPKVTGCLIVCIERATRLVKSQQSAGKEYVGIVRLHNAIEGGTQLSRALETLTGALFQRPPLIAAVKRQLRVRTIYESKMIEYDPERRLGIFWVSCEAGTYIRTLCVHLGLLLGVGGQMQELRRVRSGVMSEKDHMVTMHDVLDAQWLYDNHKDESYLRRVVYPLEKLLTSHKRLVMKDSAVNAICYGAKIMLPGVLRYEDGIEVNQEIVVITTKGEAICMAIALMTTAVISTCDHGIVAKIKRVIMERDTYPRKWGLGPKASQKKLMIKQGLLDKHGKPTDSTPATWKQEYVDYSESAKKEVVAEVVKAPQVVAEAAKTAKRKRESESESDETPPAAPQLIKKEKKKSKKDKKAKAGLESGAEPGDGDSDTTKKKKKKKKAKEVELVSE
T1 sequence (Q9NPE3 whole entry partner): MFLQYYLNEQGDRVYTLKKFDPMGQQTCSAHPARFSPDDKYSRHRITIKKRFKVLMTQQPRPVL
T1 sequence (Q9NX24 whole entry partner): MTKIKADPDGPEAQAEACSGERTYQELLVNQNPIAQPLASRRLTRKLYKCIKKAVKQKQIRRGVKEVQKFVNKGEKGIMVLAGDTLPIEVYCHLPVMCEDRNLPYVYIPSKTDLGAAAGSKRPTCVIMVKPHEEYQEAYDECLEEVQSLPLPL
T1 sequence (Q9NY12 whole entry partner): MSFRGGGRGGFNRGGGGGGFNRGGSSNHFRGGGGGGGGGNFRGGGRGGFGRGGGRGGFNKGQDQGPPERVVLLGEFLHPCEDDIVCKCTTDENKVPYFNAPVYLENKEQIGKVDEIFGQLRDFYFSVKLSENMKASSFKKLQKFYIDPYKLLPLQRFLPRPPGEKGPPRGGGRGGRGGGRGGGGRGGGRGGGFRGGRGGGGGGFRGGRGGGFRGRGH
T1 sequence (Q9BUR4 whole entry partner): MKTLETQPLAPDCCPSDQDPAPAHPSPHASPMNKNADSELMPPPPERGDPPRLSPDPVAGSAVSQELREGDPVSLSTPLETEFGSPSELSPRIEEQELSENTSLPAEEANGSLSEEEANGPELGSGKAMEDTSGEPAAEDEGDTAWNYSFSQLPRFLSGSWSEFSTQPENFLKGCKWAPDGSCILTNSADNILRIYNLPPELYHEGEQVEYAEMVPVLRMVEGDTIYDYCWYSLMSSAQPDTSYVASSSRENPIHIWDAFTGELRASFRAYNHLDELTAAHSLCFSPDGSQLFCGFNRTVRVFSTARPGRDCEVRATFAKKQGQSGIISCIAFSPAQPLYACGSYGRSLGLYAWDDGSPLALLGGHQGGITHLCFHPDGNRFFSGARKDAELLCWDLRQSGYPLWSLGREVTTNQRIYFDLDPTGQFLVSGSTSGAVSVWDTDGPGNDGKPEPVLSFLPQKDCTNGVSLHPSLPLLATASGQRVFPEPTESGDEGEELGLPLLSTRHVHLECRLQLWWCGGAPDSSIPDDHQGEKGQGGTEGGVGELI

Q: With `COc1cc(C(=O)O)c(NC(=O)/C=C(\C)c2ccc(Cl)c(Cl)c2)cc1C` [Example 17, trans-3-(3,4-dichlorophenyl)-but-2-enoic acid-N-(2-carboxy-4-methoxy-5-methyl-phenyl)-amide] as the molecule, how does the IC50 read?
A: 1000 nM

Q: For `C/C(=C\C(=O)Nc1ccc(F)cc1C(=O)O)c1ccc2ccccc2c1` [Example 31, trans-3-(naphth-2-yl)-but-2-enoic acid-N-(2-carboxy-4-fluoro-phenyl)-amide], which IC50 is on record?
A: 100 nM

Q: How did the IC50 turn out when `COc1cc(NC(=O)/C=C(\C)c2ccc3ccccc3c2)c(C(=O)O)cc1OC` [Example 28, trans-3-(naphth-2-yl)-but-2-enoic acid-N-(2-carboxy-4,5-dimethoxy-phenyl)-amide] was run?
A: 35 nM

Q: With `C/C(=C\C(=O)Nc1ccccc1C(=O)O)c1ccc(Cl)c(Cl)c1` [Example 10, trans-3-(3,4-dichlorophenyl)-but-2-enoic acid-N-(2-carboxy-phenyl)-amide] as the molecule, how does the IC50 read?
A: 5000 nM

Q: For `C/C(=C\C(=O)Nc1cc(Cl)ccc1C(=O)O)c1ccc2ccccc2c1` [Example 29, trans-3-(naphth-2-yl)-but-2-enoic acid-N-(2-carboxy-5-chloro-phenyl)-amide], which IC50 is on record?
A: 550 nM

Q: With `C/C(=C\C(=O)Nc1ccccc1C(=O)O)c1ccc2ccccc2c1` [Example 18, trans-3-(naphth-2-yl)-but-2-enoic acid-N-(2-carboxy-phenyl)-amide] as the molecule, how does the IC50 read?
A: 40 nM
